Assay results reported in PubChem BioAssay (NCI).
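Following 48 hours of exposure in 96-well plates, responses at five concentrations were used to interpolate endpoints linearly. Here, GI50 denotes the concentration required for 50% inhibition of growth. TGI denotes the concentration required for complete inhibition of growth.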

Key:
Experiment in all cases: NCI anticancer screen, dose series, 48 h
IGROV1 ovarian = test system: IGROV1 ovarian
RXF 393 renal = test system: RXF 393 renal
KM12 colon = test system: KM12 colon
SNB-75 CNS = test system: SNB-75 CNS
MOLT-4 leukemia = test system: MOLT-4 leukemia
HOP-92 NSCLC = test system: HOP-92 NSCLC
UACC-257 melanoma = test system: UACC-257 melanoma
NCI-H226 lung = test system: NCI-H226 lung
OVCAR-3 ovarian = test system: OVCAR-3 ovarian
SNB-19 CNS = test system: SNB-19 CNS
UO-31 renal = test system: UO-31 renal
COLO 205 colon = test system: COLO 205 colon
EKVX NSCLC = test system: EKVX NSCLC
MALME-3M melanoma = test system: MALME-3M melanoma
SK-MEL-5 melanoma = test system: SK-MEL-5 melanoma
UACC-62 melanoma = test system: UACC-62 melanoma
HOP-62 NSCLC = test system: HOP-62 NSCLC
TK-10 renal = test system: TK-10 renal
SW-620 colon = test system: SW-620 colon
HL-60(TB) leukemia = test system: HL-60(TB) leukemia
SK-MEL-2 melanoma = test system: SK-MEL-2 melanoma
A549 NSCLC = test system: A549 NSCLC
NCI-H23 lung = test system: NCI-H23 lung
OVCAR-4 ovarian = test system: OVCAR-4 ovarian
SK-MEL-28 melanoma = test system: SK-MEL-28 melanoma
SF-268 CNS = test system: SF-268 CNS
SK-OV-3 ovarian = test system: SK-OV-3 ovarian
RPMI-8226 leukemia = test system: RPMI-8226 leukemia
MDA-MB-231 breast = test system: MDA-MB-231 breast
U251 CNS = test system: U251 CNS
SR leukemia = test system: SR leukemia
OVCAR-5 ovarian = test system: OVCAR-5 ovarian
HT29 colon = test system: HT29 colon
MDA-MB-435 = test system: MDA-MB-435
CAKI-1 renal = test system: CAKI-1 renal
786-0 renal = test system: 786-0 renal
PC-3 prostate = test system: PC-3 prostate
DU-145 prostate = test system: DU-145 prostate
BT-549 breast = test system: BT-549 breast
HCT-15 colon = test system: HCT-15 colon
M14 melanoma = test system: M14 melanoma
K-562 leukemia = test system: K-562 leukemia
SF-539 CNS = test system: SF-539 CNS
NCI-H460 lung = test system: NCI-H460 lung
NCI/ADR-RES ovarian = test system: NCI/ADR-RES ovarian
HCT-116 colon = test system: HCT-116 colon
NCI-H522 lung = test system: NCI-H522 lung
HCC-2998 colon = test system: HCC-2998 colon
ACHN renal = test system: ACHN renal
CCRF-CEM leukemia = test system: CCRF-CEM leukemia
OVCAR-8 ovarian = test system: OVCAR-8 ovarian
HS 578T breast = test system: HS 578T breast
A498 renal = test system: A498 renal
T-47D breast = test system: T-47D breast
SF-295 CNS = test system: SF-295 CNS
LOX IMVI melanoma = test system: LOX IMVI melanoma
SN12C renal = test system: SN12C renal

`C=C1C(=O)O[C@H]2[C@H]1CC/C(CNC(=O)/C=C/c1ccc(Br)cc1)=C\CC[C@@]1(C)O[C@@H]21` was tested, and the GI50 (IGROV1 ovarian) was 1240 nM, the TGI (IGROV1 ovarian) was 3050 nM and the GI50 (RXF 393 renal) was 260 nM. The TGI (RXF 393 renal) was 1400 nM, the GI50 (KM12 colon) was 1870 nM and the TGI (KM12 colon) was 3800 nM. The GI50 (SNB-75 CNS) was 1230 nM, the TGI (SNB-75 CNS) was 2490 nM and the GI50 (MOLT-4 leukemia) was 678 nM. For the same compound, the TGI (MOLT-4 leukemia) was 4250 nM, the GI50 (HOP-92 NSCLC) was 659 nM and the TGI (HOP-92 NSCLC) was 2260 nM. For the same compound, the GI50 (UACC-257 melanoma) was 1430 nM, the TGI (UACC-257 melanoma) was 2970 nM and the GI50 (NCI-H226 lung) was 2240 nM. It also gave a TGI (NCI-H226 lung) of 7150 nM, a GI50 (OVCAR-3 ovarian) of 511 nM and a TGI (OVCAR-3 ovarian) of 1740 nM. For the same compound, the GI50 (SNB-19 CNS) was 1610 nM, the TGI (SNB-19 CNS) was 4600 nM and the GI50 (UO-31 renal) was 970 nM. It also gave a TGI (UO-31 renal) of 2190 nM, a GI50 (COLO 205 colon) of 987 nM and a TGI (COLO 205 colon) of 2750 nM. The GI50 (EKVX NSCLC) was 1460 nM, the TGI (EKVX NSCLC) was 2910 nM and the GI50 (MALME-3M melanoma) was 1330 nM. It also gave a TGI (MALME-3M melanoma) of 2780 nM, a GI50 (SK-MEL-5 melanoma) of 1600 nM and a TGI (SK-MEL-5 melanoma) of 2960 nM. It also gave a GI50 (UACC-62 melanoma) of 1340 nM, a TGI (UACC-62 melanoma) of 2780 nM and a GI50 (HOP-62 NSCLC) of 2200 nM. It also gave a TGI (HOP-62 NSCLC) of 6870 nM, a GI50 (TK-10 renal) of 1240 nM and a TGI (TK-10 renal) of 2580 nM. The GI50 (SW-620 colon) was 444 nM, the TGI (SW-620 colon) was 1770 nM and the GI50 (HL-60(TB) leukemia) was 744 nM. It also gave a TGI (HL-60(TB) leukemia) of 7280 nM, a GI50 (SK-MEL-2 melanoma) of 1400 nM and a TGI (SK-MEL-2 melanoma) of 3020 nM. It also gave a GI50 (A549 NSCLC) of 2430 nM, a TGI (A549 NSCLC) of 8720 nM and a GI50 (NCI-H23 lung) of 1410 nM. It also gave a TGI (NCI-H23 lung) of 3050 nM, a GI50 (OVCAR-4 ovarian) of 1370 nM and a TGI (OVCAR-4 ovarian) of 2960 nM. For the same compound, the GI50 (SK-MEL-28 melanoma) was 1340 nM, the TGI (SK-MEL-28 melanoma) was 2700 nM and the GI50 (SF-268 CNS) was 1780 nM. It also gave a TGI (SF-268 CNS) of 4270 nM, a GI50 (SK-OV-3 ovarian) of 3890 nM and a TGI (SK-OV-3 ovarian) of 12500 nM. It also gave a GI50 (RPMI-8226 leukemia) of 448 nM, a TGI (RPMI-8226 leukemia) of 3260 nM and a GI50 (MDA-MB-231 breast) of 1410 nM. The TGI (MDA-MB-231 breast) was 2940 nM, the GI50 (U251 CNS) was 1460 nM and the TGI (U251 CNS) was 3090 nM. For the same compound, the GI50 (SR leukemia) was 255 nM, the GI50 (OVCAR-5 ovarian) was 1700 nM and the TGI (OVCAR-5 ovarian) was 3750 nM. The GI50 (HT29 colon) was 622 nM, the TGI (HT29 colon) was 2660 nM and the GI50 (MDA-MB-435) was 632 nM. The TGI (MDA-MB-435) was 2070 nM, the GI50 (CAKI-1 renal) was 1120 nM and the TGI (CAKI-1 renal) was 2340 nM. For the same compound, the GI50 (786-0 renal) was 1050 nM, the TGI (786-0 renal) was 2450 nM and the GI50 (PC-3 prostate) was 1470 nM. The TGI (PC-3 prostate) was 3240 nM, the GI50 (DU-145 prostate) was 743 nM and the TGI (DU-145 prostate) was 2020 nM. The GI50 (BT-549 breast) was 1140 nM, the TGI (BT-549 breast) was 2950 nM and the GI50 (HCT-15 colon) was 519 nM. For the same compound, the TGI (HCT-15 colon) was 1880 nM, the GI50 (M14 melanoma) was 1110 nM and the TGI (M14 melanoma) was 2690 nM. For the same compound, the GI50 (K-562 leukemia) was 438 nM, the TGI (K-562 leukemia) was greater than 33400 nM and the GI50 (SF-539 CNS) was 873 nM. The TGI (SF-539 CNS) was 2280 nM, the GI50 (NCI-H460 lung) was 1630 nM and the TGI (NCI-H460 lung) was 3300 nM. It also gave a GI50 (NCI/ADR-RES ovarian) of 2590 nM, a TGI (NCI/ADR-RES ovarian) of 10500 nM and a GI50 (HCT-116 colon) of 667 nM. For the same compound, the TGI (HCT-116 colon) was 1950 nM, the GI50 (NCI-H522 lung) was 711 nM and the TGI (NCI-H522 lung) was 2300 nM. For the same compound, the GI50 (HCC-2998 colon) was 1560 nM, the TGI (HCC-2998 colon) was 3000 nM and the GI50 (ACHN renal) was 848 nM. The TGI (ACHN renal) was 2080 nM, the GI50 (CCRF-CEM leukemia) was 354 nM and the TGI (CCRF-CEM leukemia) was 4590 nM. For the same compound, the GI50 (OVCAR-8 ovarian) was 1670 nM, the TGI (OVCAR-8 ovarian) was 5750 nM and the GI50 (HS 578T breast) was 1440 nM. The TGI (HS 578T breast) was 4430 nM, the GI50 (A498 renal) was 236 nM and the TGI (A498 renal) was 2450 nM. For the same compound, the GI50 (T-47D breast) was 1740 nM, the TGI (T-47D breast) was 4730 nM and the GI50 (SF-295 CNS) was 2160 nM. It also gave a TGI (SF-295 CNS) of 5810 nM, a GI50 (LOX IMVI melanoma) of 594 nM and a TGI (LOX IMVI melanoma) of 1860 nM. It also gave a GI50 (SN12C renal) of 1220 nM and a TGI (SN12C renal) of 3580 nM.
